Reference: US9630964B2, “Fluoro-9-methyl-β-carbolines” (priority 2013, dated 2017)

How the values were obtained:
[1] = system: BDNF (brain-derived neurotrophic factor); experiment: Quantitative RT-PCR, relative gene expression of BDNF in SH-SY5Y cells; assay type: cell-based, human; details: 30 μM each, SH-SY5Y
Procedure: (§1) SH-SY5Y cell lines, which were provided by the institute of human genetics of university hospital Eppendorf and which they in turn received from Braunschweig resource center, were used again for the RT-PCR experiments (reverse transcriptase polymerase chain reaction) carried out for this purpose.
(§2) The cells were incubated in MEM (Minimum essential medium, Life Technologies) with 10% FCS (fetal calf serum, Biochrom AG) and penicillin/streptomycin (Biochrom AG). The cells were seeded with a density of 1×10^5 cells/cm^2 in 25 cm^2 cell culture bottles (Falcon, cell culture treated) with 5 mL medium. Stock solutions of 10 mmol/L of compounds 9-methyl-β-carboline (AC-002 or 9MβC) and 6-fluoro-9-methyl-β-carboline (AC-102 or 6F9MβC), respectively were prepared in distillated water and sterile filtered. One day after the cell seeding the compounds were added in corresponding amounts (5-55 μL) to reach final concentration in the medium of 10 μM, 20 μM and 30 μM for 6F9MβC and 30 μM, 50 μM and 70 μM for 9MβC. The references received only the corresponding amount of solvent (distilled water). The medium was changed once a week.
(§3) The cells were regularly microscopically examined and harvest after 2, 7 and 14 days of incubation time, washed with PBS and immediately frozen at −80° C.
(§4) The RNA-isolation was done with the HighPure RNA Isolation kit of the company Roche. […] The concentration of RNA was measured with nanoDrop spectrometer and the RNA integrity was determined with the aid of the Bioanalyzer 2100 (Agilent). […]
(§5) After the reaction, this run was diluted 1:4 and thereof 2 μL per each quantitative RT-PCR were used. This was performed in a LightCycler 480 under standard conditions in the SybrGreen format with annealing temperatures determined for each primer individually. […]
The specificity was verified by melting curve analysis and subsequent gel electrophoresis. For each PCR the PCR efficiency and the Cq value was determined by the program LinRegPCR and these were used in further calculations. […] Every measured value from FIGS. 5A-5I represents a mean value of 3 independent biologic samples. […]

[2] = system: Lif (Leukemia inhibitory factor); experiment: Quantitative RT-PCR, relative gene expression of Lif in SH-SY5Y cells; assay type: cell-based, human; details: 30 μM each
Procedure: as §1, §2, §3
(§6) The RNA-isolation was done with the HighPure RNA Isolation kit of the company Roche. This isolation includes a DNaseI digestion. The concentration of RNA was measured with nanoDrop spectrometer and the RNA integrity was determined with the aid of the Bioanalyzer 2100 (Agilent). By using random hexamer primers, protector RNA inhibitor (Roche) and transcriptor reverse transcriptase (fermentas), 300 ng RNA were transcribed into cDNA per each sample.
(§7) After the reaction, this run was diluted 1:4 and thereof 2 μL per each quantitative RT-PCR were used. This was performed in a LightCycler 480 under standard conditions in the SybrGreen format with annealing temperatures determined for each primer individually. If possible, exon spanning primers were used.
(§8) The specificity was verified by melting curve analysis and subsequent gel electrophoresis. For each PCR the PCR efficiency and the Cq value was determined by the program LinRegPCR and these were used in further calculations. B2M (β2-microglobulin) was identified from multiple reference genes to be suitable for examination conditions. All results are results relative to the corresponding reference conditions, at which only solvent was administered for the specified period of time (i.e. 2 days, 7 days or 14 days). In FIGS. 5A to 5I are also relative gene expressions (relative to reference conditions) presented. Here, the 2-day exposition is presented in light grey, the 7-day exposition in dark grey and the 14-day exposition in black. Every measured value from FIGS. 5A-5I represents a mean value of 3 independent biologic samples.
(§9) Analogous to example 4 RT-PCR experiments with the inventive active agent 7-fluoro-9-methyl-β-carboline (7F9MβC) were also performed for some important cellular factors. The experimental procedure was here identical to the experiments with 6-fluoro-9-methyl-β-carboline and 9-methyl-β-carboline. Here the same (like for 6F9MβC) final concentrations of 30 μM, 50 μM and 70 μM 7F9MβC for the culture medium were employed. The examined factors were BDNF (brain-derived neurotrophic factor), Lif (Leukemia inhibitory factor), DRD2S (short variant of dopamine receptor subtype 2) as well as DKK1 (Dickkopf-related protein 1). The same primers, that were already listed for the respective target genes in example 4 (Tab. 1) were used. As already noted, especially BDNF and Lif belongs to the most important factors for cellurar repair processes after traumas in the inner ear.

[3] = system: BTG2 (B-cell translocation gene 2); experiment: Quantitative RT-PCR, relative gene expression of BTG2 in SH-SY5Y cells; assay type: cell-based, human; details: 10 μM 6F9MβC, except after 2-day exposition
Procedure: as §1
(§10) The cells were incubated in MEM (Minimum essential medium, Life Technologies) with 10% FCS (fetal calf serum, Biochrom AG) and penicillin/streptomycin (Biochrom AG). The cells were seeded with a density of 1×10^5 cells/cm^2 in 25 cm^2 cell culture bottles (Falcon, cell culture treated) with 5 mL medium. […]
as §4, §5
(§11) The specificity was verified by melting curve analysis and subsequent gel electrophoresis. For each PCR the PCR efficiency and the Cq value was determined by the program LinRegPCR and these were used in further calculations. […]

quotient Bax/Bcl2 = experiment: Quantitative RT-PCR, quotient Bax/Bcl2 (apoptosis marker) in SH-SY5Y cells; assay type: cell-based, human; details: 30 μM each, except after 2-day exposition
Procedure: as §1, §10, §4, §5, §11

[4] = system: DRD2S (short variant of dopamine receptor subtype 2); experiment: Quantitative RT-PCR, relative gene expression of DRD2S in SH-SY5Y cells; assay type: cell-based, human; details: 30 μM each
Procedure: as §1, §2, §3, §6, §7, §8, §9

hearing threshold = experiment: Acoustically evoked potentials: hearing threshold after acoustic trauma; assay type: in vivo; details: guinea pig, total 0.18 mg per ear
Procedure: To trigger an acoustic trauma, guinea pigs were anesthetized with 60 mg/kg ketamine and 8 mg/kg xylazine. Then Bepanten ointment (Bayer) was administered to the eyes and the animal was put in a soundproof chamber. A calibrated speaker was placed directly above the head of the animal, wherein it was set to emit a half octave band, centered around 8 kHz, with a volume of 110 dB for duration of 30 minutes.
As measure for evaluation of the hearing threshold of the guinea pig acoustically evoked potentials were measured. Therefore, the electrophysiological activity of the nerve cells in the brain stem that forward impulses from the inner ear was derived after sonication of the ear with 8, 11.3, 16, 22.6 and 32 kHz. The sonification was carried out ascendingly from 0 dB to 90 dB in single steps of 5 dB.
The measurement was carried out 3 days before the acoustic trauma (D-3), 30 minutes after the acoustic trauma (D0) as well as 14 days after the acoustic trauma (D14).
Per animal one ear was not treated and used as intra-individual control (hierin partly abbreviated to “contr.”) and the second ear was treated with 6-fluoro-9-methyl-β-carboline. Therefore, one hour after the acoustic trauma a dose of 0.12 mg 6-fluoro-9-methyl-β-carboline (in a hydrogel as vehicle) was administered intratympanically. 3 days after the acoustic trauma a further intratympanic administration of 0.06 mg 6-fluoro-9-methyl-β-carboline was carried out. The measurements were conducted on four guinea pigs (n=4).
Afterwards, the remaining shift of hearing threshold (also named as permanent shift of hearing threshold) was determined from the measured values before the acoustic trauma (D-3) and after 14 days (D14). From the measured values directly after the acoustic trauma (D0) and after 14 days (D14) the recovery from the trauma (D0-D14) was also determined.
Analogous to the above performed experiments with 6-fluoro-9-methyl-β-carboline, also corresponding experiments with 9-methyl-β-carboline were performed. The experimental procedure was nearly identical, wherein of course 9-methyl-β-carboline instead of 6-fluoro-9-methyl-β-carboline was used. The total dose of 9-methyl-β-carboline was here 0.2 mg and 0.35 mg per ear, respectively.

CREB = experiment: Examination on cellular level: concentration of CREB; assay type: cell-based
[5] = system: BDNF (brain derived neurotrophic factor); experiment: Examination on cellular level: concentration of BDNF; assay type: cell-based
[6] = guinea pig, in vivo
Procedure: For better evaluation of half times of 9-methyl-β-carboline (9MβC), 6-fluoro-9-methyl-β-carboline (6F9MβC) and 7-fluoro-9-methyl-β-carboline (7F9MβC) in animal organism and more precisely in perilymph (the notified site of action), experiments with guinea pigs were conducted. Therefore, the respective active agent (in total 1.4 mg active agent per ear), packed in 40 μl of a hydrogel (18% Poloxamer 407 and 0.6% alginate), was administered at once in front of the membrane of the round window of narcotized guinea pigs. […] After expiry of the desired time (20 min, 2 h, 8 h or 24 h), each time 5 μL perilymph were removed under anesthesia from the top of the cochlea (apex). Subsequently, the animal was killed. Per each time (20 min, 2 h, 8 h or 24 h) measured values were taken of at least ears and averaged.
The concentration of the corresponding active agent in perilymph samples was determined by high-performance liquid chromatography (HPLC, partly also named as high-pressure liquid chromatography) and measurement of auto fluorescence of the respective active agent. For HPLC the eluent consisted to 45% of 90% acetonitrile and to 55% of ammonium acetate (40 mM, pH<5). The flow rate was 0.4 mL/min and injection volume was 10 μL. Each sample was diluted with 60% methanol, if the signal was too strong. After each run the injection needle was washed with 100% isopropanol. The detection limit was 20 fmol/L.
From the determined active agent concentrations the elimination half times were then calculated.

With `Cn1c2ccc(F)cc2c2ccncc21` [6F9MβC, 6-fluoro-9-methyl-β-carboline] the “BDNF expression relative to expression induced by 9MβC” value [1] was “approximately twice as high”, the “Lif expression relative to expression induced by 9MβC” value ([2]; 2-day exposition) was “approximately three times as high” and the “Lif expression relative to expression induced by 9MβC” value ([2]; 7-day exposition) was “slightly lower”. The “Lif expression relative to expression induced by 9MβC” value ([2]; 14-day exposition) was “approximately twice as high”, the “BTG2 expression compared to the highest concentration of 9MβC” value [3] was “comparable” and the “quotient Bax/Bcl2 compared to 9MβC” value (quotient Bax/Bcl2) was “significantly lower”. The “DRD2S expression relative to expression induced by 9MβC” value ([4]; 2-day exposition) was “higher”, the “DRD2S expression relative to expression induced by 9MβC” value ([4]; 7-day exposition) was “lower” and the “DRD2S expression relative to expression induced by 9MβC” value ([4]; 14-day exposition) was “higher”. For the same compound, the “improved recovery of hearing threshold (D0-D14) vs untreated ear” value (“improved recovery … vs untreated ear” below) (hearing threshold; 8 kHz) was “approximately 5 dB”, the “improved recovery … vs untreated ear” value (hearing threshold; 11.3 kHz) was about 25 dB and the “reduction of the hearing threshold (permanent shift D14-D-3) vs untreated control” value (hearing threshold; 11.3 kHz) was “approximately 20 dB”. The “improved recovery … vs untreated ear” value (hearing threshold; 16 kHz) was about 20 dB, the “reduction of the hearing threshold (permanent shift D14-D-3) vs untreated control” value (hearing threshold; 16 kHz) was about 30 dB and the “increase of the concentration of CREB (factor)” value (CREB) was 8. For the same compound, the “increase of the concentration of BDNF” value [5] was “up to three times” and the elimination half time [6] was “approximately 6.0 h”.
